Source: patent publication US12077483B2, “Modified amine lipids” (Intellia Therapeutics, Inc., priority 2018, dated 2024)

What was measured:
[1] = system: rat TTR; assay: Serum TTR levels in rats after LNP delivery; type: in vivo; details: Table 11, G534, Sprague Dawley female rats i.v.
[2] = system: rat TTR; assay: In vivo editing in rat liver, LNP with Cas9 mRNA and sgRNA G534, NGS; details: Table 11, Sprague Dawley female rats i.v., liver 6-7 days post dose
Experimental: In brief, to quantitatively determine the efficiency of editing at the target location in the genome, genomic DNA was isolated and deep sequencing was utilized to identify the presence of insertions and deletions introduced by gene editing.
PCR primers were designed around the target site (e.g., B2M), and the genomic area of interest was amplified. Additional PCR was performed according to the manufacturer's protocols (Illumina) to add the necessary chemistry for sequencing. The amplicons were sequenced on an Illumina MiSeq instrument. The reads were aligned to the relevant reference genome (e.g., GRCm38) after eliminating those having low quality scores. The resulting files containing the reads were mapped to the reference genome (BAM files), where reads that overlapped the target region of interest were selected and the number of wild type reads versus the number of reads which contain an insertion, substitution, or deletion was calculated.
The editing percentage (e.g., the “editing efficiency” or “percent editing”) is defined as the total number of sequence reads with insertions or deletions over the total number of sequence reads, including wild type.
To assess lipid efficacy, dose response experiments were performed in vivo. Cas9 mRNA of Example 115 was formulated as LNPs with a gRNA targeting TTR (G00534; SEQ ID NO: 5). These LNPs were formulated, prepared and analyzed as described in Example 115 using a 1:2 w/w ratio of a sgRNA and Cas9 mRNA. Composition analysis for these LNPs are described in Table 10.
For efficacy, Sprague Dawley female rats were dosed i.v. at 0.1 mpk or 0.03 mpk. 6-7 days post dose, rats were euthanized by CO2 asphyxiation. Blood was collected into serum separator tubes. Liver biopsy processed for gDNA and assessed for editing by NGS methods described in Example 115. Results are shown in Table 11 and FIGS. 12A and 12B. For tolerability, Sprague Dawley female rats were dosed at 6 mpk and 24 hours post dose the animals were euthanized by CO2 asphyxiation. Blood was collected into serum separator tubes and sent to an external CRO for quantitation of liver enzymes via a liver enzyme panel.

SMILES	Serum TTR ([1]; dose 0.03 mpk) [µg/mL]	Serum TTR % TSS ([1]; dose 0.03 mpk) [% TSS]	Serum TTR ([1]; dose 0.1 mpk) [µg/mL]	Serum TTR % TSS ([1]; dose 0.1 mpk) [% TSS]	Editing % Editing ([2]; dose 0.03 mpk) [%]	Editing % Editing ([2]; dose 0.1 mpk) [%]
CCCCC/C=C\C/C=C\CCCCCCCC(=O)OCC(COC(=O)CCCCCCC/C=C\C/C=C\CCCCC)OC(=O)CCC(CCCCCC)OC(=O)NCCN1CCCC1 (racemic) [Compound 50, 2-((4-(((2-(pyrrolidin-1-yl)ethyl)carbamoyl)oxy)decanoyl)oxy)propane-1,3-diyl (9Z,9′Z,12Z,12′Z)-bis(octadeca-9,12-dienoate)]	581.7	69	116.6	14	26.9	62.6
CCCCC/C=C\C/C=C\CCCCCCCC(=O)OCC(COC(=O)CCCCCCC/C=C\C/C=C\CCCCC)OC(=O)CCC(CCCCCCCC)OC(=O)NCCN(C)CC (stereo not drawn) [Compound 34, 2-((4-(((2-(ethyl(methyl)amino)ethyl)carbamoyl)oxy)dodecanoyl)oxy)propane-1,3-diyl (9Z,9′Z,12Z,12′Z)-bis(octadeca-9,12-dienoate)]	514.2	61	188.9	22	21.22	53.9
CCCCC/C=C\C/C=C\CCCCCCCC(=O)OCC(COC(=O)CCCCCCC/C=C\C/C=C\CCCCC)OC(=O)CCC(CCCCCC)OC(=O)OCCCN1CCCC1 (stereo not drawn) [Compound 45, 2-((4-(((3-(pyrrolidin-1-yl)propoxy)carbonyl)oxy)decanoyl)oxy)propane-1,3-diyl (9Z,9′Z,12Z,12′Z)-bis(octadeca-9,12-dienoate)]	910.4	110	270.7	32	10.76	48.16
CCCCC/C=C\C/C=C\CCCCCCCC(=O)OCC(COC(=O)CCC(OCCCCCCCC)OCCCCCCCC)COC(=O)OCCCN(CC)CC (stereo not drawn) [Compound 49, 3-((4,4-bis(octyloxy)butanoyl)oxy)-2-((((3-(diethylamino)propoxy)carbonyl)oxy)methyl)propyl (9Z,12Z)-octadeca-9,12-dienoate, reference compound]	790.9	94	669.5	79	4.76	25.62
